For 10 compounds, T/C results are on record in PubChem BioAssay AID328 (DTP/NCI, 2004).

“And” between values parts separate entries of the source, which are not always exact repeats. Equal entries are not always repeated. Inconclusive results and toxic doses are left out.

This experiment deals with BDF1 mice, P388 leukemia ip, median survival T/C. The experiment in a line: NCI In Vivo Anticancer Drug Screen. Data for tumor model P388 Leukemia (intraperitoneal) in B6D2F1 (BDF1) mice. Particulars: endpoint: median survival time, higher = longer survival. Summed up:
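Survival ratio, drug arm over vehicle arm, in mice with a transplanted tumour.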

[1] abbreviates: dose: 100.0 mg/kg/injection, schedule: Q04DX003 (ip), vehicle: Klucel (hydroxypropylcellulose) (HPC).
Where [2] appears, read: dose: 200.0 mg/kg/injection, schedule: Q04DX003 (ip), vehicle: Klucel (hydroxypropylcellulose) (HPC).
Where [3] appears, read: dose: 400.0 mg/kg/injection, schedule: Q04DX003 (ip), vehicle: Klucel (hydroxypropylcellulose) (HPC).
Setting [4] is: dose: 100.0 mg/kg/injection, schedule: Q01DX009 (ip), vehicle: saline with Tween-80.
[5] abbreviates: dose: 100.0 mg/kg/injection, schedule: Q04DX003 (ip), vehicle: saline with Tween-80.
The mark [6] stands for this setting: dose: 200.0 mg/kg/injection, schedule: Q01DX009 (ip), vehicle: saline with Tween-80.
[7] abbreviates: dose: 200.0 mg/kg/injection, schedule: Q04DX003 (ip), vehicle: saline with Tween-80.
The mark [8] stands for this setting: dose: 400.0 mg/kg/injection, schedule: Q04DX003 (ip), vehicle: saline with Tween-80.

Turning to `COC(=O)CNC(=O)C(CSCc1ccccc1)NC(=O)OCc1ccccc1` (stereo not drawn), the T/C is 95 % of control under setting [1], 100 % of control under setting [2] and 90 % of control under setting [3].
With `Cc1ccc(COC(=O)c2ccccc2)cc1`, the T/C is 104 % of control (dose: 100.0 mg/kg/injection, schedule: Q01DX001 (ip), vehicle: Klucel (hydroxypropylcellulose) (HPC)); 95 % of control (dose: 200.0 mg/kg/injection, schedule: Q01DX001 (ip), vehicle: Klucel (hydroxypropylcellulose) (HPC)); 104 % of control (dose: 400.0 mg/kg/injection, schedule: Q01DX001 (ip), vehicle: Klucel (hydroxypropylcellulose) (HPC)).
In the case of `COc1cccc2c1C(=O)c1c(O)c3c(c(O)c1C2=O)CC(O)(C(C)=O)CC3OC1CC(N)C(O)C(C)O1` (stereo not drawn), the T/C by setting is: (dose: 0.03 mg/kg/injection, schedule: Q01DX010 (ip), vehicle: saline) 118 % of control; (dose: 0.06 mg/kg/injection, schedule: Q01DX010 (ip), vehicle: saline) 118 % of control; (dose: 0.12 mg/kg/injection, schedule: Q01DX010 (ip), vehicle: saline) 118 % of control; (dose: 0.25 mg/kg/injection, schedule: Q01DX009 (ip), vehicle: water) 160 % of control; (dose: 0.25 mg/kg/injection, schedule: Q01DX010 (ip), vehicle: saline) 165 % of control and 175 % of control; (dose: 0.5 mg/kg/injection, schedule: Q01DX009 (ip), vehicle: water) 173 % of control. In addition, the T/C is 180 % of control and 195 % of control (dose: 0.5 mg/kg/injection, schedule: Q01DX010 (ip), vehicle: saline); 182 % of control (dose: 1.0 mg/kg/injection, schedule: Q01DX009 (ip), vehicle: water); 230 % of control and 200 % of control (dose: 1.0 mg/kg/injection, schedule: Q01DX010 (ip), vehicle: saline); 210 % of control (dose: 2.0 mg/kg/injection, schedule: Q01DX009 (ip), vehicle: water); 155 % of control and 190 % of control and 220 % of control (dose: 2.0 mg/kg/injection, schedule: Q01DX010 (ip), vehicle: saline); 157 % of control (dose: 4.0 mg/kg/injection, schedule: Q01DX009 (ip), vehicle: water). The T/C (dose: 4.0 mg/kg/injection, schedule: Q01DX010 (ip), vehicle: saline) was 180 % of control; the T/C (dose: 7.5 mg/kg/injection, schedule: Q04DX003 (ip), vehicle: water) is 104 % of control; the T/C (dose: 8.0 mg/kg/injection, schedule: Q01DX001 (ip), vehicle: saline) is 150 % of control; the T/C (dose: 8.0 mg/kg/injection, schedule: Q01DX010 (ip), vehicle: saline) was 90 % of control and 95 % of control; the T/C (dose: 15.0 mg/kg/injection, schedule: Q04DX003 (ip), vehicle: water) is 119 % of control; the T/C (dose: 16.0 mg/kg/injection, schedule: Q01DX001 (ip), vehicle: saline) is 90 % of control. In addition, the T/C runs as follows: (dose: 60.0 mg/kg/injection, schedule: Q04DX003 (ip), vehicle: water) 167 % of control; (dose: 240.0 mg/kg/injection, schedule: Q04DX003 (ip), vehicle: water) 93 % of control; (dose: 125.0 micrograms/kg/injection, schedule: Q01DX010 (ip), vehicle: saline) 154 % of control; (dose: 250.0 micrograms/kg/injection, schedule: Q01DX010 (ip), vehicle: saline) 159 % of control.
With `O=c1[nH]c2cc(F)ccc2o1`, the T/C is 100 % of control under setting [1], 95 % of control under setting [2] and 100 % of control under setting [3].
Consider `COc1ccc2c(c1)C(=O)CC=C(C(=O)O)N2`, for which the T/C by setting is: under setting [4], 112 % of control; under setting [5], 100 % of control; under setting [6], 112 % of control; under setting [7], 115 % of control; (dose: 400.0 mg/kg/injection, schedule: Q01DX009 (ip), vehicle: saline with Tween-80) 116 % of control; under setting [8], 115 % of control.
For the compound `O=C1NC(c2ccccc2)(c2ccccc2)C(=O)N1CCN(CCCl)CCCl`, the T/C runs as follows: (dose: 6.1 mg/kg/injection, schedule: Q04DX003 (ip), vehicle: saline with Tween-80) 100 % of control; (dose: 14.0 mg/kg/injection, schedule: Q04DX003 (ip), vehicle: saline) 150 % of control; (dose: 21.0 mg/kg/injection, schedule: Q04DX003 (ip), vehicle: saline) 190 % of control; (dose: 33.0 mg/kg/injection, schedule: Q04DX003 (ip), vehicle: saline with Tween-80) 154 % of control and 168 % of control; (dose: 50.0 mg/kg/injection, schedule: Q04DX003 (ip), vehicle: saline with Tween-80) 181 % of control and 200 % of control.
`CC(=O)Nc1c([N+](=O)[O-])ccc(Cl)c1Cl`: the T/C runs as follows: (dose: 25.0 mg/kg/injection, schedule: Q01DX009 (ip), vehicle: Klucel (hydroxypropylcellulose) (HPC)) 104 % of control; (dose: 50.0 mg/kg/injection, schedule: Q01DX009 (ip), vehicle: Klucel (hydroxypropylcellulose) (HPC)) 87 % of control; (dose: 100.0 mg/kg/injection, schedule: Q01DX009 (ip), vehicle: Klucel (hydroxypropylcellulose) (HPC)) 100 % of control; under setting [1], 100 % of control.
Take `CCCCC(=O)NC(=O)c1ccccc1`: the T/C is, setting by setting: under setting [4], 104 % of control; under setting [5], 108 % of control; under setting [6], 104 % of control; under setting [7], 104 % of control; under setting [8], 100 % of control.
As to `Cc1c2ccccc2c(C)c2c1ccc1ccccc12`, the T/C (dose: 1.7 mg/kg/injection, schedule: Q01DX009 (ip), vehicle: saline with Tween-80) is 172 % of control; the T/C (dose: 2.6 mg/kg/injection, schedule: Q01DX009 (ip), vehicle: saline with Tween-80) is 163 % of control; the T/C (dose: 4.0 mg/kg/injection, schedule: Q01DX009 (ip), vehicle: saline with Tween-80) was 177 % of control; the T/C (dose: 6.0 mg/kg/injection, schedule: Q01DX009 (ip), vehicle: saline with Tween-80) is 168 % of control; the T/C (dose: 13.0 mg/kg/injection, schedule: Q01DX009 (ip), vehicle: saline with Tween-80) was 172 % of control.
With `CC1OC(Oc2c(-c3cc(O)c(O)c(O)c3)oc3cc(O)cc(O)c3c2=O)C(O)C(O)C1O` (stereo not drawn), the T/C by setting is: (dose: 50.0 mg/kg/injection, schedule: Q01DX009 (ip), vehicle: saline with Tween-80) 119 % of control; under setting [4], 100 % of control.
